Data from patent publication US8394848B2, “Compounds that modulate intracellular calcium” (Calcimedica, Inc., priority 2008, dated 2013).

System: JR251 or RBL cells
Assay: Store-operated calcium entry, either JR251 or RBL cells, or both
Format: cell-based
Outline: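 FLIPR calcium-entry readout in fluo-4-loaded cells held in Ca2+-free HBSS before calcium add-back. For RBL-2H3, store depletion used thapsigargin for 25 min after a 5 min compound pre-incubation, and IC50 was based on the 7 s Upslope. For Orai1/STIM1 stable cells, compound was pre-incubated 30 min and IC50 was based on Peak-Basal.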

Compound	IC50 [µM]
O=C(Nc1scc(-c2ccc(C(F)(F)F)cc2Cl)c1C(=O)O)c1nc2ccccc2o1 [2-(benzo[d]oxazole-2-carboxamido)-4-(2-chloro-4-(trifluoromethyl)phenyl)thiophene-3-carboxylic acid]	< 10
Cc1ccc(-c2csc(NC(=O)c3nc4cc(F)ccc4o3)c2C(=O)O)c(F)c1F [4-(2,3-difluoro-4-methylphenyl)-2-(5-fluorobenzo[d]oxazole-2-carboxamido)thiophene-3-carboxylic acid]	< 10
O=C(Nc1scc(-c2ccc(Cl)cc2)c1C(=O)O)c1nc2ccccc2s1 [2-(benzo[d]thiazole-2-carboxamido)-4-(4-chlorophenyl)thiophene-3-carboxylic acid]	< 10
O=C(Nc1scc(-c2ccc(Cl)cc2)c1C(=O)O)OCc1ccccc1 [2-(benzyloxycarbonylamino)-4-(4-chlorophenyl)thiophene-3-carboxylic acid]	< 10
O=C(O)c1c(-c2ccc(Cl)cc2Cl)csc1NC(=O)C1CC1 [2-(cyclopropanecarboxamido)-4-(2,4-dichlorophenyl)thiophene-3-carboxylic acid]	< 10
O=C(CCc1cccs1)Nc1scc(-c2ccc(Br)cc2)c1C(=O)O [4-(4-bromophenyl)-2-(3-(thiophen-2-yl)propanamido)thiophene-3-carboxylic acid]	< 10
O=C(Nc1scc(-c2ccc(Cl)cc2)c1C(=O)O)c1nc2ccccc2o1 [2-(benzo[d]oxazole-2-carboxamido)-4-(4-chlorophenyl)thiophene-3-carboxylic acid]	< 10
O=C(Nc1scc(-c2ccc3occc3c2)c1C(=O)O)c1cc2ccccc2o1 [2-(benzofuran-2-carboxamido)-4-(benzofuran-5-yl)thiophene-3-carboxylic acid]	< 10
COc1cc(C)c(-c2csc(NC(=O)c3cc4ccccc4o3)c2C(=O)O)c(C)c1 [2-(benzofuran-2-carboxamido)-4-(4-methoxy-2,6-dimethylphenyl)thiophene-3-carboxylic acid]	< 10
Cc1cc(Cl)ccc1-c1csc(NC(=O)c2nc3ccccc3o2)c1C(=O)O [2-(benzo[d]oxazole-2-carboxamido)-4-(4-chloro-2-methylphenyl)thiophene-3-carboxylic acid]	< 10
Cc1ccc(-c2csc(NC(=O)c3cc4c(C)nn(C)c4s3)c2C(=O)O)cc1 [2-(1,3-dimethyl-1H-thieno[2,3-c]pyrazole-5-carboxamido)-4-p-tolylthiophene-3-carboxylic acid]	< 10
O=C(Nc1scc(-c2cc3cc(Br)ccc3o2)c1C(=O)O)c1cc2ccccc2o1 [2-(benzofuran-2-carboxamido)-4-(5-bromobenzofuran-2-yl)thiophene-3-carboxylic acid]	< 10
Cc1ccc(-c2csc(NC(=O)c3nc4ccccc4o3)c2C(=O)O)c(Cl)c1 [2-(benzo[d]oxazole-2-carboxamido)-4-(2-chloro-4-methylphenyl)thiophene-3-carboxylic acid]	< 10
O=C(Nc1scc(-c2ccc(Cl)cc2)c1C(=O)O)OCc1ccccc1Cl [2-((2-chlorobenzyloxy)carbonylamino)-4-(4-chlorophenyl)thiophene-3-carboxylic acid]	< 10
N#Cc1cc(-c2csc(NC(=O)c3nc4ccccc4o3)c2C(=O)O)ccc1Cl [2-(benzo[d]oxazole-2-carboxamido)-4-(4-chloro-3-cyanophenyl)thiophene-3-carboxylic acid]	< 10
Cc1ccc(-c2csc(NC(=O)c3sccc3C)c2C(=O)O)cc1 [2-(3-methylthiophene-2-carboxamido)-4-p-tolylthiophene-3-carboxylic acid]	< 10
COC1CCCC(C(=O)Nc2scc(-c3ccc(Br)cc3)c2C(=O)O)C1 (centres unmarked) [4-(4-bromophenyl)-2-(3-methoxycyclohexanecarboxamido)thiophene-3-carboxylic acid]	< 10
O=C(Nc1scc(-c2ccc(Cl)c(F)c2)c1C(=O)O)c1nc2ccccc2s1 [2-(benzo[d]thiazole-2-carboxamido)-4-(4-chloro-3-fluorophenyl)thiophene-3-carboxylic acid]	< 10
O=C(Nc1scc(-c2ccc(Oc3ccccc3)cc2)c1C(=O)O)c1nc2ccccc2o1 [2-(benzo[d]oxazole-2-carboxamido)-4-(4-phenoxyphenyl)thiophene-3-carboxylic acid]	< 10
CC(C)S(=O)(=O)c1csc(C(=O)Nc2scc(-c3ccc(Cl)cc3)c2C(=O)O)c1Cl [2-(3-chloro-4-(isopropylsulfonyl)thiophene-2-carboxamido)-4-(4-chlorophenyl)thiophene-3-carboxylic acid]	< 10
O=C(O)c1c(-c2ccc(Cl)cc2)csc1NC(=O)C(F)Cc1cc(F)c(F)cc1Cl (centres unmarked) [2-(3-(2-chloro-4,5-difluorophenyl)-2-fluoropropanamido)-4-(4-chlorophenyl)thiophene-3-carboxylic acid]	< 10
Cc1ccc(-c2csc(NC(=O)c3cc4ccccn4n3)c2C(=O)O)c(F)c1F [4-(2,3-difluoro-4-methylphenyl)-2-(pyrazolo[1,5-a]pyridine-2-carboxamido)thiophene-3-carboxylic acid]	< 10
Cc1ccc(-c2csc(NC(=O)c3cc(Cl)sc3Cl)c2C(=O)O)cc1 [2-(2,5-dichlorothiophene-3-carboxamido)-4-p-tolylthiophene-3-carboxylic acid]	< 10
O=Cc1ccc(-c2csc(NC(=O)c3nc4ccccc4o3)c2C(=O)O)cc1 [2-(benzo[d]oxazole-2-carboxamido)-4-(4-formylphenyl)thiophene-3-carboxylic acid]	< 10
O=C(Nc1scc(-c2cc(F)c(Cl)cc2F)c1C(=O)O)c1cc2ccccc2o1 [2-(benzofuran-2-carboxamido)-4-(4-chloro-2,5-difluorophenyl)thiophene-3-carboxylic acid]	< 10
O=C(Nc1scc(-c2cc3cccc(O)c3o2)c1C(=O)O)c1cc2ccccc2o1 [2-(benzofuran-2-carboxamido)-4-(7-hydroxybenzofuran-2-yl)thiophene-3-carboxylic acid]	< 10
O=C(Nc1scc(-c2cc3cc(O)ccc3o2)c1C(=O)O)c1cc2ccccc2o1 [2-(benzofuran-2-carboxamido)-4-(5-hydroxybenzofuran-2-yl)thiophene-3-carboxylic acid]	< 10

Further lines, results first:

IC50 [µM]	Compound
< 10	O=C(CCc1cccc(Cl)c1)Nc1scc(-c2ccc(Cl)cc2)c1C(=O)O [4-(4-chlorophenyl)-2-(3-(3-chlorophenyl)propanamido)thiophene-3-carboxylic acid]
< 10	O=C(O)c1c(-c2ccc(Cl)cc2)csc1NC(=O)C1Cc2c(F)cccc2S1 (centres unmarked) [4-(4-chlorophenyl)-2-(4-fluoro-2,3-dihydrobenzo[b]thiophene-2-carboxamido)thiophene-3-carboxylic acid]
< 10	O=C(Nc1scc(-c2ccc(Br)cc2)c1C(=O)O)c1ccco1 [4-(4-bromophenyl)-2-(furan-2-carboxamido)thiophene-3-carboxylic acid]
< 10	O=C(CCc1ccc(F)c(F)c1)Nc1scc(-c2ccc(Cl)cc2)c1C(=O)O [4-(4-chlorophenyl)-2-(3-(3,4-difluorophenyl)propanamido)thiophene-3-carboxylic acid]
< 10	O=C(Nc1scc(-c2ccc(Br)cc2)c1C(=O)O)c1cc2sccc2[nH]1 [4-(4-bromophenyl)-2-(4H-thieno[3,2-b]pyrrole-5-carboxamido)thiophene-3-carboxylic acid]
< 10	O=C(O)c1c(-c2ccc(Cl)cc2)csc1NC(=O)C1Cc2ccccc2N1 (centres unmarked) [4-(4-chlorophenyl)-2-(indoline-2-carboxamido)thiophene-3-carboxylic acid]
< 10	Cn1ncc(C(=O)Nc2scc(-c3ccc(Br)cc3)c2C(=O)O)c1Cl [4-(4-bromophenyl)-2-(5-chloro-1-methyl-1H-pyrazole-4-carboxamido)thiophene-3-carboxylic acid]
< 10	Cc1ccc(C(=O)Nc2scc(-c3ccc(Cl)cc3)c2C(=O)O)cn1 [4-(4-chlorophenyl)-2-(6-methylnicotinamido)thiophene-3-carboxylic acid]
< 10	O=C(Nc1scc(-c2ccc(Br)cc2)c1C(=O)O)c1cnc2ccccc2n1 [4-(4-bromophenyl)-2-(quinoxaline-2-carboxamido)thiophene-3-carboxylic acid]
< 10	O=C(Nc1scc(-c2ccc(Cl)cc2)c1C(=O)O)c1cc2ccccn2n1 [4-(4-chlorophenyl)-2-(pyrazolo[1,5-a]pyridine-2-carboxamido)thiophene-3-carboxylic acid]
< 10	O=C(Nc1scc(-c2ccc(Cl)cc2)c1C(=O)O)c1cnn(-c2ccccc2)c1 [4-(4-chlorophenyl)-2-(1-phenyl-1H-pyrazole-4-carboxamido)thiophene-3-carboxylic acid]
< 10	O=C(NCc1ccccc1F)Nc1scc(-c2ccc(Cl)cc2)c1C(=O)O [4-(4-chlorophenyl)-2-(3-(2-fluorobenzyl)ureido)thiophene-3-carboxylic acid]
< 10	O=C(Nc1scc(-c2ccc(Cl)cc2)c1C(=O)O)c1ccc(-c2ccccc2)s1 [4-(4-chlorophenyl)-2-(5-phenylthiophene-2-carboxamido)thiophene-3-carboxylic acid]
< 10	O=C(Nc1scc(-c2ccc(Cl)cc2)c1C(=O)O)c1cc2sccc2s1 [4-(4-chlorophenyl)-2-(thieno[3,2-b]thiophene-2-carboxamido)thiophene-3-carboxylic acid]
< 10	O=C(O)c1c(-c2ccc(Cl)cc2)csc1NC(=O)C1(c2ccc(Cl)cc2)CC1 [4-(4-chlorophenyl)-2-(1-(4-chlorophenyl)cyclopropanecarboxamido)thiophene-3-carboxylic acid]
< 10	O=C(Nc1scc(-c2ccc(Cl)cc2)c1C(=O)O)c1cc2c(Cl)cccn2n1 [4-(4-chlorophenyl)-2-(4-chloropyrazolo[1,5-a]pyridine-2-carboxamido)thiophene-3-carboxylic acid]
< 10	O=C(Nc1scc(-c2ccc(Cl)cc2)c1C(=O)O)c1cscn1 [4-(4-chlorophenyl)-2-(thiazole-4-carboxamido)thiophene-3-carboxylic acid]
